Calls of active or inactive are those of the source.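 How the source made its calls: active means maximal inhibition of the USP30 enzyme reaching 30% or more across the dose series; inactive means the rest.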
Biological target: Ubiquitin carboxyl-terminal hydrolase 30 (Homo sapiens) (UniProt Q70CQ3)
Assay: ubiquitin-specific protease 30 DUB inhibitors, concentration-effect, biochemical, validation of primary actives (AID 1645865)
Conditions: purified USP30, Ub-rhodamine cleavage, fluorescence, 2 h

Sequence of Ubiquitin carboxyl-terminal hydrolase 30 (Homo sapiens) (Q70CQ3 whole entry, looked up): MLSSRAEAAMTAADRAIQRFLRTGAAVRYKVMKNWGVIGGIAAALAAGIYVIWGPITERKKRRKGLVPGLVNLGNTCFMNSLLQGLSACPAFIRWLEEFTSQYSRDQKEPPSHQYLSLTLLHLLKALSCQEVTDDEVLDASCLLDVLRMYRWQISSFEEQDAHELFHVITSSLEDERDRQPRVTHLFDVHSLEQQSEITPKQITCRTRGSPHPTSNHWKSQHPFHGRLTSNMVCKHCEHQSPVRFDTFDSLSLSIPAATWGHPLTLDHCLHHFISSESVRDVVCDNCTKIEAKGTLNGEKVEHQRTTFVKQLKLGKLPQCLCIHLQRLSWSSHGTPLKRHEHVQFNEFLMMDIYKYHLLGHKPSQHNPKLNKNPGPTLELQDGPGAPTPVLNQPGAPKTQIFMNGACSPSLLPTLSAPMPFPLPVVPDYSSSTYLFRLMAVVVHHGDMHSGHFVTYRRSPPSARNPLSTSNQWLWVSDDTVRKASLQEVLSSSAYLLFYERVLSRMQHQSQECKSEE

Structure (SMILES)	IC50
CCOC(=O)c1ccc(NC(=O)c2cnc(N3CCOCC3)nc2)cc1	> 50 µM (inactive)
CC1CC(=O)c2c(cc3c(-c4c(O)cc(O)c5c(O)c6c(cc45)OC(C)CC6=O)c(O)cc(O)c3c2O)O1 (stereo not drawn)	> 50 µM (inactive)
COC1C(O)=C2C(=O)O/C(C)=C/C=C/C=C/C=C/CC(c3ccccc3)NC(=O)/C=C/C=C/C=C\C=C\C2(C)C1O (stereo not drawn)	> 50 µM (inactive)
N[C@@H](Cc1ccccc1)C(=O)N1CCC2(CC1)CN(C(=O)c1ccc(Cl)cc1)CCO2	> 50 µM (inactive)
O=C(Nc1ccc(-c2cn3ccsc3n2)cc1)c1ccc(Cl)c([N+](=O)[O-])c1	1.27 µM
O=C(CSc1ncnc2c1sc1cccc(F)c12)N1CCCCCC1	> 50 µM (inactive)
O=C(CSc1nnc2n1CCCCC2)Nc1ccc2[nH]c(=O)[nH]c2c1	> 50 µM (inactive)
COC1=CC(=O)c2c(O)c(C)c(CC(C)=O)c(O)c2C1=O	> 50 µM (inactive)
O=C1C=CC(O)C2C1CC13SSC4(CC5C(=O)C=CC(O)C5N4C1=O)C(=O)N23 (stereo not drawn)	1 µM
Cc1cccc2sc(NC(=O)c3nnn(-c4ccc(F)cc4)n3)nc12	> 50 µM (inactive)
Cc1sc(-c2cccnc2)nc1OC(=O)c1ccc(Cl)c(Cl)c1	> 50 µM (inactive)
O=C(Nc1ccccc1Cl)N(Cc1cc2cc3c(cc2[nH]c1=O)OCCO3)C1CCCCC1	35.5 µM
c1cnc(-c2n[nH]c(C3CCN(C4CCNC4)CC3)n2)cn1 (stereo not drawn)	> 50 µM (inactive)
CNC(=O)c1cc2nc(N(C)C)n(-c3ccc(F)cc3)c2s1	> 50 µM (inactive)
FC(F)(F)c1cccc(CSc2ccc3nnc(-c4ccccn4)n3n2)c1	14.9 µM
O=C(Cn1nnc(-c2ccc(F)cc2)n1)NCCc1ccccc1	> 50 µM (inactive)
c1ccc(-n2nnc(-c3noc(-c4ccccn4)n3)c2-c2ccncc2)cc1	25.4 µM

Structure (SMILES)	IC50
CCN(CC)c1nc(F)c2c(c1F)S(=O)(=O)CCN2Cc1ccccc1	> 50 µM (inactive)
CC(C)Cc1nc2sc3c(NCCN4CCOCC4)ncnc3c2c2c1CCC2	> 50 µM (inactive)
CCCCCCCCCC(CCCCCCCCCC(=O)O)O[C@H]1O[C@@H](COC(C)=O)[C@H](O)[C@@H](O)[C@H]1OC(=O)CC(=O)O (stereo partly drawn)	21.7 µM
N#Cc1ccc(-c2ccc(OCC(=O)Nc3ccc4c(c3)OCO4)cc2)cc1	3.89 µM
CCc1ccc(NC(=O)COc2cccc(-n3cnnn3)c2)cc1	26.6 µM
Cc1c(OCC(=O)NCC(=O)N2CCC3(O)CCCCC3C2)ccc2c3c(c(=O)oc12)CCCC3 (stereo not drawn)	23.7 µM
CC(C)Cc1nc2oc3c(N(C)CCO)ncnc3c2c2c1CCC2	> 50 µM (inactive)
O=C(CSc1ccc(-c2cccc([N+](=O)[O-])c2)nn1)Nc1cccc(F)c1	2.11 µM
O=C(COc1ccccc1-c1nnc(-c2ccccc2)o1)Nc1ccc(F)cc1F	2.16 µM
Fc1ccc(Cc2nc(-c3ccc4nncn4c3)no2)cc1	> 50 µM (inactive)
Cc1ccc(NC(=O)c2cnc(N3CCOCC3)nc2)cc1F	27.6 µM
CCC(=O)Nc1ccc2c(c1)nc(CSc1nccc(C)n1)n2CC	> 50 µM (inactive)
O=C(CCc1ccc(S(=O)(=O)N2CCOCC2)cc1)Nc1ccc2c(c1)OCCO2	> 50 µM (inactive)
CN1CCN(C(=O)c2ccn(-c3ccc4ccc(-c5cnn(C)c5)cn34)n2)CC1	> 50 µM (inactive)
O=S(=O)(c1ccc2c(c1)OCCO2)N(Cc1ccccc1)Cc1nnc(-c2ccccc2)o1	> 50 µM (inactive)
O=C(Nc1cc(Cl)cc(Cl)c1)c1csnn1	16 µM

The next lines start with the values.

IC50	Structure (SMILES)
> 50 µM (inactive)	CCCn1cc(C(=O)N2CCC3(CC2)CC2(CO3)Nc3ccccc3-n3cccc32)c(C)n1 (stereo not drawn)
24.3 µM	O=C1CC(C(=O)Nc2ccccc2F)n2nc(-c3ccccc3)cc2N1 (stereo not drawn)
25.8 µM	COc1ccc(CN=C2NS(=O)(=O)C(c3ccc(F)cc3)=C2C)cc1OC
3.92 µM	COc1ccc(-c2cc3nc([C@H](C)NC(=O)Cc4cccc(F)c4)nn3cn2)cc1
> 50 µM (inactive)	COc1cccc(-c2nc(C(N)=O)c3[nH]c(=O)n(-c4cccc(Cl)c4)c3n2)c1OC
4.71 µM	CC(C)Cc1nc2sc3c(NCc4ccccc4)ncnc3c2c2c1COC(C)(C)C2
> 50 µM (inactive)	COc1cccc(N2CCN(C(=O)CCNS(=O)(=O)c3ccc4c(c3)CCC(=O)N4)CC2)c1
> 50 µM (inactive)	Cc1ccc(C(=O)Nc2ccc3c(c2)C(=O)N(C)c2ccccc2O3)cc1C
41.8 µM	Cc1cccc(C(=O)NCc2nc3ccccc3n2Cc2ccccc2C)c1
4.88 µM	Cc1cc(N2CCN(c3ncccn3)CC2)nc2ccc(NC(=O)/C=C/c3ccccc3Cl)cc12
> 50 µM (inactive)	COc1ccc2c(c1)c(N1CCCC1=O)c(C(=O)NCc1cccc(OC)c1OC)n2C
27.9 µM	COc1ccc(C2C(C(=O)Nc3ccccc3OC)=C(C)Nc3nnnn32)cc1Br (stereo not drawn)
3.47 µM	COc1ccc(NC(=O)c2[nH]nc3c2COc2ccccc2-3)c(OC)c1
34.8 µM	COc1cc(COc2ccc3c(C)c(CC(=O)N4CC[C@@]5(O)CCCC[C@H]5C4)c(=O)oc3c2C)cc(OC)c1OC
> 50 µM (inactive)	O=C(Nc1ccc(Br)cn1)c1nc2ccccc2nc1N1CCCCC1
> 50 µM (inactive)	COc1ccc(NC(=O)c2nc3n(n2)-c2ccccc2S(=O)(=O)N3)cn1
> 50 µM (inactive)	COc1cccc(C(=O)NCc2[nH]nc3ccccc23)c1
1.77 µM	COc1ccc(OC)c(NC(=O)Cn2c(=O)n(CC3CCC(C(=O)NCCc4ccccc4)CC3)c(=O)c3ccccc32)c1 (stereo not drawn)

IC50	Structure (SMILES)
> 50 µM (inactive)	COc1cccc(CN2CCc3nc4nc(C)ccc4cc3C2)c1
8.06 µM	Cc1sc(-c2ccc(Cl)nc2)nc1OC(=O)c1ccc(F)cc1F
> 50 µM (inactive)	Cc1cc(Cl)c2c(c1)[C@]1(C(=O)N2)N2CCC[C@H]2[C@@H](C(=O)c2cc3ccccc3o2)[C@]12C(=O)Nc1ccccc12
17.9 µM	COc1cccc(NC(=O)Nc2ccc(NC(C)=O)cc2)c1
> 50 µM (inactive)	Cc1nc2cccnc2n1C1CCN(C(=O)c2cc3cc(Cl)ccc3[nH]2)C1 (stereo not drawn)
> 50 µM (inactive)	COc1ccc(C(=O)Nc2cc3c4c(c2)C(C)C(=O)N4CCC3)cc1 (stereo not drawn)
> 50 µM (inactive)	CCc1nc2c(NC(=O)Nc3cccc(C(=O)OC)c3)cccn2n1
> 50 µM (inactive)	COc1c2n(c3ccccc13)[C@@]1(O)C(=O)N(C)C(=O)[C@@]1(O)c1c-2n(C)c2ccc(Cl)cc12
1.98 µM	Cc1cc(C)c(NC(=O)Cn2c(=O)n(CCC(=O)NCc3ccc4c(c3)OCO4)c(=O)c3sccc32)c(C)c1
5.88 µM	Cc1ccc(-c2nc(NC(=O)Nc3ccc(Cl)cc3)sc2C)cc1
21 µM	CCc1ccc(-n2nc(C)c3c2NC(=O)CC3C(=O)c2ccc3c(c2)OCCO3)cc1 (stereo not drawn)
> 50 µM (inactive)	CCOc1ccc(NC(=O)c2nc3c(=O)[nH]c4cc(C)ccc4n3n2)cc1
46.4 µM	COc1ccc2[nH]cc(S(=O)(=O)c3ccc(C)c(F)c3)c(=O)c2c1
21.7 µM	O=C(Cn1c(=O)c2sccc2n(Cc2ccc([N+](=O)[O-])cc2)c1=O)NCCc1ccccc1
45.2 µM	COCCn1ccc2nc(C)c(C(=O)Nc3ccc4c(c3)OCCO4)cc2c1=O
> 50 µM (inactive)	N#Cc1ccccc1COC(=O)c1ccc2ccccc2n1
> 50 µM (inactive)	O=C(Nc1ccc(NS(=O)(=O)c2ccc3c4c(cccc24)CC3)cc1)c1ccccc1

Source: PubChem BioAssay AID1645865 (Buhrlage Lab, Dana-Farber Cancer Institute and Novartis …, 2021)
